The values that follow come from PubChem BioAssay AID1250 (SRMLSC, 2008).

SMILES strings stand for the structures. Calls of active or inactive are those of the source.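 How the source made its calls: active means inhibition of at least 30% at one or more tested concentrations; inactive means inhibition below 30% at every dose.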

This test is described as follows: antiviral protection against BTV-induced cell death – arbovirus, BSR cells, confirmation (AID 1250). To be noted: BSR cells, Bluetongue virus CPE, ATP luminescence, 72 h; at 20 µM (top of the series).
As to `COc1ccc(CCN(C)Cc2ccc(F)cc2F)cc1OC`, the CPE inhibition is 3.03% (inactive). Turning to `Cc1ccc(C(CC(=O)O)Nc2nc(N3CCCCC3)nc(N3CCCCC3)n2)cc1` (stereo not drawn), the CPE inhibition is 9.28% (inactive). In the case of `c1ccc(-c2csc3ncnc(NCCCN4CCOCC4)c23)cc1`, the CPE inhibition was 4.19% (inactive). Turning to `Nc1[nH]nc2nc(NCc3ccccc3)c3c(c12)CCN(Cc1ccccc1)C3`, the CPE inhibition is 10.8% (inactive). Consider `CC1=C(C(=O)OC2CCCCCCC2)C(c2cccc(O)c2)NC(=O)N1` (stereo not drawn), for which the CPE inhibition is 7% (inactive).

As to `Brc1ccccc1-c1nnc(SCc2nc3ccccc3s2)o1`, the CPE inhibition was 0.37% (inactive). For the compound `CCOC(=O)C1(CCCc2ccccc2)CCN(C2CCSCC2)CC1`, the CPE inhibition is 11.3% (inactive).

As for `Cc1cccc(C)c1Nc1nnc(SC/C(O)=C(\C#N)c2nc3ccccc3[nH]2)s1`, the CPE inhibition was 16.8% (inactive).

With `O=C(O)CCn1cc(/C=C/C(=O)c2ccc(Cl)cc2)c(-c2ccc(Br)cc2)n1`, the CPE inhibition was 13.8% (inactive).

As to `Cc1ccccc1-n1nc(CSc2nc3ccccc3[nH]2)c(-c2ccccc2)c1N`, the CPE inhibition was 14.9% (inactive). For `O=c1oc(-c2ccccc2NS(=O)(=O)c2ccc3ccccc3c2)nc2ccccc12`, the CPE inhibition was 10.9% (inactive). With `CC1Cc2ccccc2N1S(=O)(=O)c1cccc(C(=O)N2CCN(c3ncccn3)CC2)c1` (stereo not drawn), the CPE inhibition was 19.4% (inactive).

`CC(C)CSC1=NSC2=NC(=O)/C(=C\c3coc4ccccc4c3=O)C(=N)N12`: the CPE inhibition is 14% (inactive). With `CCCCCc1nnc(NC(=O)C2COc3ccccc3O2)s1` (stereo not drawn), the CPE inhibition is 17.9% (inactive). The same measure for `COc1ccc(NC(=O)C(=O)N/N=C/c2cc(C)n(-c3cccc(Cl)c3Cl)c2C)c(OC)c1`: 20.7% (inactive). The same measure for `CCOc1ccc2nc(NC(=O)C3CCN(S(=O)(=O)c4cnc[nH]4)CC3)sc2c1`: 11.9% (inactive). The same measure for `CC(C)C(=O)Nc1nnc(SCC(=O)N2c3ccccc3CC2C)s1` (stereo not drawn): 11.5% (inactive). `N#Cc1c(C(F)(F)F)cc(-c2ccc(Cl)cc2)[nH]c1=O`: the CPE inhibition was 25.9% (inactive). Next, `Cc1ccc(OCCSCc2nnc(NC(=O)Nc3cccc(Cl)c3)s2)cc1`: 19.4% (inactive). The same measure for `O=C(NC1=NCCS1)c1ccc(Cl)c(S(=O)(=O)N2CCCC2)c1`: 12.3% (inactive).

Consider `CC1=Nc2ccccc2/C1=C/c1c(N)n2c(S(=O)(=O)C(C)C)nsc2nc1=O`, for which the CPE inhibition is 19% (inactive). Take `COc1cccc2sc(NN)nc12`: the CPE inhibition was 15.8% (inactive). Next, `O=C(Nc1nc(-c2ccccc2)ns1)c1cccs1`: 15.2% (inactive); `O=C1c2ccccc2N2C(=O)c3ccccc3[C@H]2N1c1ccccc1`: 2.15% (inactive).

Take `O=C(Nn1c(SCc2cccc([N+](=O)[O-])c2)nc2ccccc2c1=O)c1ccccc1`: the CPE inhibition is 29.8% (inactive).

With `CN1CCc2nc3sc(C#N)c(N)c3c(-c3cccs3)c2C1`, the CPE inhibition was 10.1% (inactive).

Take `CSc1ncc(Cl)c(C(=O)C(C#N)c2nc3c(C)cc(C)cc3c(=O)[nH]2)n1` (stereo not drawn): the CPE inhibition was 20.1% (inactive).

`O=Cc1cn(-c2ccccc2)nc1-c1cc2cc(O)ccc2oc1=O`: the CPE inhibition was 9.88% (inactive). Next, `CCCC1=NN2C(=N)/C(=C\c3cc(C)n(-c4cccc(C)c4)c3C)C(=O)N=C2S1`: 24% (inactive); `CCOc1ccc(NC(=O)Nc2cc(-c3ccccc3)sc2C(=O)OC)cc1`: 14.7% (inactive).

In the case of `CC(=O)c1ccc(N2CCN(C(=O)c3cc(-c4cccnc4)nc4ccc(Br)cc34)CC2)cc1`, the CPE inhibition is 0.41% (inactive).

With `O=C(O)c1cc(N/N=C2/CC(c3ccccc3)Oc3ccccc32)ccc1Cl` (stereo not drawn), the CPE inhibition was 16.6% (inactive).

With `COc1ccccc1N1CCN(Cc2cc(C)c(C)cc2O)CC1`, the CPE inhibition was 25.1% (inactive). The same measure for `Cc1ccc(-c2csc(NC(=O)c3cccc(S(=O)(=O)N4CCN(C)CC4)c3)n2)cc1`: 5.05% (inactive).

With `COC(=O)c1ccccc1NC(=O)c1ccc(COc2ccc(C)c(C)c2)o1`, the CPE inhibition was 27.6% (inactive). The same measure for `CCCc1cc(=O)[nH]c(SCC(=O)NC)n1`: -0.15% (inactive). Next, `C=CCn1c(SC(C)C(N)=O)nc2sc(CC)cc2c1=O` (stereo not drawn): 18% (inactive); `Oc1ccc(Br)cc1-c1nc2cnccn2c1NC1CCCC1`: 16.6% (inactive); `O=C(Nc1ccccc1C(=O)O)c1cccc(NC(=O)c2ccc(Br)o2)c1`: 7.57% (inactive). Turning to `CCOC(=O)c1nn(-c2ccc(Cl)cc2)c2nc(Nc3ccccc3)cc(=O)n12`, the CPE inhibition was 28.9% (inactive). Take `O=C1CC(N2CCC(Cc3ccccc3)CC2)C(=O)N1CCc1ccccc1` (stereo not drawn): the CPE inhibition was 3.89% (inactive). Regarding `O=C1CN(C(=O)/C=C/c2ccc(Cl)cc2)c2ccccc2N1`, the CPE inhibition was 7.62% (inactive).

As for `CCCS(=O)(=O)n1nc(-c2ccc(OC)cc2OC)cc1N`, the CPE inhibition is -1.58% (inactive).

As for `COc1ccccc1/C=C/C=C1N=C(/C=C/c2ccc(Cl)cc2)OC/1=O`, the CPE inhibition is 25.2% (inactive). Next, `O=C(O)c1ccccc1N/N=C\c1ccnc2ccccc12`: 12.3% (inactive). Next, `CCOC(=O)c1ccc(N2CCN(c3ccccc3F)CC2)c(NC(=O)Nc2ccccc2)c1`: 19.7% (inactive); `N=C1/C(=C/c2ccc(-c3cccc(C(=O)O)c3)o2)C(=O)N=C2SC=C(c3ccccc3)N12`: 16.8% (inactive). Next, `O=C(O)c1ccccc1CSc1ccccn1`: 2.46% (inactive); `COC(=O)c1sccc1NC(=O)CSc1ccccc1NS(=O)(=O)c1ccc(Br)cc1`: 18.5% (inactive); `O=C(O)c1cnc(-c2ccccc2)nc1Sc1ccccc1Cl`: 11.8% (inactive). Consider `O=C(Nc1cccc(NC(=O)c2cccs2)c1)c1ccco1`, for which the CPE inhibition is 20.1% (inactive). As for `CCOc1ccc2nc(NC(=O)C3=NN(c4ccccc4)C(=O)CC3)sc2c1`, the CPE inhibition was 25% (inactive). As for `CN1CCN(c2ccc(/C=C3\C(=O)NC(=S)N(c4cccc(Br)c4)C3=O)o2)CC1`, the CPE inhibition is 14.7% (inactive). Next, `O=C(Nc1nc2ccccc2s1)c1ccc(N2CCCCC2)c([N+](=O)[O-])c1`: 22.1% (inactive). The same measure for `O=C1CC(c2ccc(Br)cc2)NC(c2ccc(Br)cc2)C1c1ccccc1` (stereo not drawn): 7.99% (inactive); for `COc1ccc(-c2nc(C3CCCCC3)no2)cc1OC`: 8.02% (inactive). Take `CCSc1nnc(NC(=O)CSc2nnc(Cc3cccn3C)n2-c2ccc(F)cc2)s1`: the CPE inhibition is 13.9% (inactive). Next, `COc1ccc(-c2noc(-c3ccccc3-c3ccccc3)n2)cc1OC`: 10.8% (inactive); `N#Cc1c(NC(=O)C2CC(Cl)=CCC2C(=O)O)sc2c1CCCCC2` (stereo not drawn): 17.1% (inactive); `CC(C)(C)c1ccc(N/N=C(\C#N)S(=O)(=O)C(C)(C)C)cc1`: 23.9% (inactive). For the compound `Cc1ccc(C)c(N2CCN(C(=O)Cc3ccc(-n4c(=O)[nH]c5ccsc5c4=O)cc3)CC2)c1`, the CPE inhibition is 13.2% (inactive). The same measure for `COc1ccc(Br)cc1CN(C)CC(=O)Nc1c(Cl)cccc1Cl`: 28.5% (inactive). `COc1ccc(C(=O)Nc2sc3c(c2C(=O)O)CC(C)(C)OC3)cc1`: the CPE inhibition was 27.2% (inactive). Next, `O=C(O)c1cnc(-c2ccccc2)nc1Sc1ccc(Cl)cc1`: 15.2% (inactive). Next, `Cc1ccc(N2C(=O)C3CC(c4ccccc4)=C4C5C=CC(C6C(=O)N(c7ccc(C)cc7)C(=O)C56)C4C3C2=O)cc1` (stereo not drawn): 11.8% (inactive). Regarding `CC(C)n1c(NCCc2ccccc2)nc2c1c(=O)n(C)c(=O)n2C`, the CPE inhibition is 7.91% (inactive). On to `COc1ccccc1C(=O)NCC1CCN(c2ccc(S(=O)(=O)N3CCOCC3)cc2)CC1`, for which the CPE inhibition is 6.04% (inactive). `CCOC(=O)N1CCC(Nc2c(Nc3cccc(CC)c3)c(=O)c2=O)CC1`: the CPE inhibition is 9.52% (inactive). Take `O=C(NC(=S)NCCC1=CCCCC1)c1ccccc1Br`: the CPE inhibition was 28.5% (inactive). Next, `Cc1cc(C)c(NC(=S)NC(=O)c2ccc(-c3ccccc3)cc2)c(C)c1`: 14.9% (inactive); `O=C(O)c1c(NC(=O)c2cccc3ccccc23)sc2c1CCC2`: 0.01% (inactive); `O=C(Nc1nnc(SCc2ccccc2Cl)s1)C1COc2ccccc2O1` (stereo not drawn): 16.7% (inactive).

As to `COCC(C)n1c(SCc2nc3ccccc3c(=O)[nH]2)nc2ccccc2c1=O` (stereo not drawn), the CPE inhibition was 29.9% (inactive). For the compound `CCOC(=O)c1cnc(SCc2nc(N)nc(Nc3ccc(C)cc3)n2)nc1N`, the CPE inhibition is 29.3% (inactive).

For `O=C1c2[nH]nc(-c3ccccc3O)c2C(c2ccc(F)cc2)N1CC1CCCO1` (stereo not drawn), the CPE inhibition is 10.9% (inactive). Next, `COc1ccc(CN(C(=O)c2oc3ccccc3c2C)C2CCS(=O)(=O)C2)cc1OC` (stereo not drawn): 18.3% (inactive); `CS(=O)(=O)c1nsc2nc(=O)c(/C=C3\C=Nc4ccccc43)c(N)n12`: 14.8% (inactive); `O=C1CC(=O)N(Cc2ccco2)C(=O)N1`: 2.11% (inactive).

`C#CCNC(=O)C1=C[C@H](c2cn(C(C)=O)c3ccccc23)C[C@H](OCc2ccc(CO)cc2)O1`: the CPE inhibition is -0.3% (inactive). As for `COC(=O)C1=C(C)N(Cc2ccco2)C(=O)N[C@@H]1c1cccc(C(F)(F)F)c1`, the CPE inhibition is 21.6% (inactive).

As for `COC(=O)Nc1ccc(S(=O)(=O)N2CCC(C(=O)N(C)C3CCCCC3)CC2)cc1`, the CPE inhibition was 4.71% (inactive).

`CCC1=NN2C(=N)/C(=C\c3cccn3-c3ccc(C)cc3C)C(=O)N=C2S1`: the CPE inhibition was 27.2% (inactive).

As to `O=C(c1ccc2ccccc2n1)N1CCN(c2ccccc2Cl)CC1`, the CPE inhibition is 8.76% (inactive).
